Measured values reported in patent US20260008768A1, “UREA DERIVATIVES FOR INHIBITING NLRP3 AND USES THEREOF” (VENTUS THERAPEUTICS U.S., INC., priority 2023, published 2026).

Legend:
human NLRP3 [1] = biological target: T1, human NLRP3 (Homo sapiens, UniProt Q96P20); assay: Scintillation Proximity (SPA) NLRP3 Assay, displacement of 3H-MCC950; type: binding; details: for IC50: displacement of 3H-MCC950 from human NLRP3
In short: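 Human NLRP3 (350 nM) preincubated 15 min at RT with compound (5% DMSO final) in HEPES pH 7.5 buffer with 100 μM ADP, then 125 nM 3H-MCC950 added for 60 min. Copper PVT SPA beads added; counts read 6 h later. Specific binding = signal minus no-protein wells, duplicates averaged; IC50 reported.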

mouse NLRP3 = biological target: T2, mouse NLRP3 (Mus musculus, UniProt Q8R4B8); assay: Mouse Whole Blood (mWB) NLRP3 Assay (LPS/ATP, IL-1b); type: cell-based
T2 construct: from tissue; host or cells: whole blood of female CD1 mice
T2 sequence (Q8R4B8 whole entry): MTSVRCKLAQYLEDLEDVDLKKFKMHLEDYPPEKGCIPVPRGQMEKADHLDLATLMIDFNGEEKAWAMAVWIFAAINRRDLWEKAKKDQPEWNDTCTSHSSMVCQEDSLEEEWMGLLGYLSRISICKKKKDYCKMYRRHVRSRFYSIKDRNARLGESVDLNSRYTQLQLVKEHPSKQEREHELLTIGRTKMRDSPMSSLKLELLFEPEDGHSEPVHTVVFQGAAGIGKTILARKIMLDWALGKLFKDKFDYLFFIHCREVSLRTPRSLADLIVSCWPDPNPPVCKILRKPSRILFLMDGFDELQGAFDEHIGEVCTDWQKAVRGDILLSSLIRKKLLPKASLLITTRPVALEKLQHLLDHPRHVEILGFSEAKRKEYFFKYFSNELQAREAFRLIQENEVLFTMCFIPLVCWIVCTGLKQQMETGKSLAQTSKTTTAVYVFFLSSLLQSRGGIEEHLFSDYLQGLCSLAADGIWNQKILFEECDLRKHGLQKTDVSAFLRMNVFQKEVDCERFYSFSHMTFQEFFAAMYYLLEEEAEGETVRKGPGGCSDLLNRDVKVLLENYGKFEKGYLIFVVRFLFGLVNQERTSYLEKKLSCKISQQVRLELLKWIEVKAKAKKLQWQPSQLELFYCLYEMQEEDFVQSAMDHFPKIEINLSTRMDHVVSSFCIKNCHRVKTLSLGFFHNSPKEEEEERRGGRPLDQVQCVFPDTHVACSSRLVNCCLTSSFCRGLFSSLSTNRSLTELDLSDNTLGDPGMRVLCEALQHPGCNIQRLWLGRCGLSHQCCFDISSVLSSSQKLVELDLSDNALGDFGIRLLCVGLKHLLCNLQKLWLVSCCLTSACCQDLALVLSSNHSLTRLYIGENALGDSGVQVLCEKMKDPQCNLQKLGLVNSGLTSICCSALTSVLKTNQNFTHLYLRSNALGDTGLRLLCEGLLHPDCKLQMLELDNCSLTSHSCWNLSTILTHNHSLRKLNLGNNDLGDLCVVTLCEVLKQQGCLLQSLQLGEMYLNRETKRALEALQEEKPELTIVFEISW
Experimental: Reagents: The following reagents were used: blood collection tubes (Heparin); U-bottom 96-well tissue culture (Falcon 353077); HBSS for LPS, ATP and compound dilutions (Gibco 24020-117); and LPS, E. coli serotype O26:B6 (Sigma L-2654).
Mouse IL-1b MSD assay: Blood was drawn from female CD1 mice (9 to 10 weeks) by cardiac puncture. Blood was plated (135 μL) per well in 96-well U-bottom plates. 7.5 μL of 20×LPS (20 μg/mL, final concentration of 1 μg/mL) was added and mixed by gentle pipetting, and the mixture was incubated in a TC incubator for five hours. 7.5 μL of 20× compound or vehicle per well was added and mixed by gentle pipetting. Compounds were diluted 1/50 in HBSS to prepare a 20× dilution curve in 2% DMSO. The mixture was incubated for 30 minutes in a TC incubator with shaking (450 rpm). 5 μl of 31×ATP (155 mM, final concentration of 5 mM) was added and mixed by gentle pipetting. The mixture was incubated in a TC incubator for 30 minutes with shaking (450 rpm). The plate was centrifuged for 10 minutes at 800×g and ˜70 μL of plasma was removed. Plasma was frozen if required. Mouse IL-1b was analyzed with IL-1b MSD assay (K152TUK).
Compounds were added 30 minutes before priming the cells with LPS when TNFα was required to be quantified in the cytokine panel to confirm selectivity.
mWB NLRP3 IC50 assay results, as a measurement of whole blood potency, are provided in Table B. “A” activity=<1 uM; “B” activity=1-2 uM; “C” activity=>2-3 uM; “D” activity=>3 uM.

human NLRP3 [2] = biological target: T1, human NLRP3; assay: Human Whole Blood (hWB) NLRP3 Assay (LPS/ATP, IL-1β); type: cell-based; parameters: host or cells: human whole blood from healthy volunteers (A3)
Experimental: Human whole blood is drawn from healthy volunteers after obtaining written informed consent. Heparin lithium coated tubes are used to collect blood from volunteers. Blood samples are distributed on 96 well plates using 90 μl per well.
Priming procedure: Priming is performed by adding 5 μl of LPS (O26:B6; Sigma L-2654) at a final concentration of 1 μg/ml for 4.5 hours in a humidified incubator with 37° C., 5% CO2. Thirty minutes prior to NLRP3 activation, 5 μl of a 20× compound solution or vehicle (2% dimethylsulfoxide (DMSO)) is added to each well and plates were incubated on a shaker (450 rpm) in a humidified incubator with 37° C., 5% CO2.
Alternative priming procedure: Thirty minutes prior to LPS priming, 5 μl of a 20× compound solution or vehicle (2% dimethylsulfoxide (DMSO)) is added to each well and plates were incubated on a shaker (450 rpm) in a humidified incubator with 37° C., 5% CO2. Priming is performed by adding 5 μl of LPS (O26:B6; Sigma L-2654) at a final concentration of 1 μg/ml for 5 hours in a humidified incubator with 37° C., 5% CO2.
Activation is then performed by adding 3.3 μl of a 31×ATP solution per well. At the end of the 30 minutes stimulation, the plates are centrifuged (800 g, 10 min, room temperature) and the plasma from each well is frozen at −80° C. IL-1β levels in the supernatant were analyzed using a mesoscale discovery assay (MSD K151TUK) according to the manufacturers' instructions.
There is no detectable difference in assay results using the priming procedure versus the alternative priming procedure.
hWB NLRP3 IC50 assay results, as a measurement of whole blood potency, are provided in Table B. “A” activity=<1 uM; “B” activity=1-2 uM; “C” activity=>2-3 uM; “D” activity=>3 uM.

T1 sequence (Q96P20 whole entry): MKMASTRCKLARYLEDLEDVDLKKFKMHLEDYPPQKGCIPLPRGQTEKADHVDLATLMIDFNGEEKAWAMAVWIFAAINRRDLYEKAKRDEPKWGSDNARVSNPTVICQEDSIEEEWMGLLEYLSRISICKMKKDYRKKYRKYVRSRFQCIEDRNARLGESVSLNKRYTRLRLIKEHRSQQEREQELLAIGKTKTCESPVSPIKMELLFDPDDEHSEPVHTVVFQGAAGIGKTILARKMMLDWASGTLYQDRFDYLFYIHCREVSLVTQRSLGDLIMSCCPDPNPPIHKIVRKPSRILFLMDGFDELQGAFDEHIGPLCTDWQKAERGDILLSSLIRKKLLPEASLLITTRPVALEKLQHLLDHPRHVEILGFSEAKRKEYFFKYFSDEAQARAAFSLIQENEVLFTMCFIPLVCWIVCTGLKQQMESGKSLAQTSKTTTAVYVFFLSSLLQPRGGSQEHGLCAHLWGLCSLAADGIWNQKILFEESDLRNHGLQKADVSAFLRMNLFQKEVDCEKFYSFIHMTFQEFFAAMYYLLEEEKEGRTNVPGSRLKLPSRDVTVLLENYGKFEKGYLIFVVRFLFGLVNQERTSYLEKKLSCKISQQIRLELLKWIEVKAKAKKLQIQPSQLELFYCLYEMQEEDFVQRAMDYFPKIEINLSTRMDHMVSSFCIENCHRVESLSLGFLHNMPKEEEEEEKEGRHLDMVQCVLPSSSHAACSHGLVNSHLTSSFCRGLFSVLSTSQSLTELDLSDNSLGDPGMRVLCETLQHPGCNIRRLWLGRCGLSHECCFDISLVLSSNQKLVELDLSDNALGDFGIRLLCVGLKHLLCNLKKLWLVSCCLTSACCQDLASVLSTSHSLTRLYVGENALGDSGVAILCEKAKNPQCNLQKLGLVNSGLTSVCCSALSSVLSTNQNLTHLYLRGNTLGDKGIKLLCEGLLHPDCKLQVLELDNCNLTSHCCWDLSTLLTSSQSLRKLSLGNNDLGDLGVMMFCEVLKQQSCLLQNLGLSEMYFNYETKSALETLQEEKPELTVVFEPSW

| SMILES | IC50 (human NLRP3 [1]; Table B, activity class) | IC50 (human NLRP3 [1]; Table C) | fold increase in binding activity (SPA IC50) (human NLRP3 [1]; relative to Compound 39A) | IC50 (mouse NLRP3; Table B, activity class) | IC50 (mouse NLRP3; Table C) | IC50 (human NLRP3 [2]; Table B, activity class) | IC50 (human NLRP3 [2]; Table C) | fold improvement in binding activity (SPA IC50) (human NLRP3 [1]; relative to Comparative Example B1) |
| --- | --- | --- | --- | --- | --- | --- | --- | --- |
| C[C@@H]1CCN(c2nnn[nH]2)C[C@H](NC(=O)N(C)c2ccc(OC(F)F)cc2)C1 (single isomer, unassigned) [11A*] | < 1000 nM | 140 nM | 5.9 fold | < 1000 nM | 26 nM | < 1000 nM | 58 nM |  |
| C[C@@H]1CCN(c2nnn[nH]2)C[C@H](NC(=O)N(C)c2ccc(Cl)cc2)C1 (single isomer, unassigned) [4A*] | < 1000 nM | 96 nM |  | < 1000 nM | 40 nM | < 1000 nM | 150 nM | > 1950 fold |
| C[C@@H]1CCN(c2nnn[nH]2)C[C@H](NC(=O)N(C)c2ccc(OC(F)(F)F)cc2)C1 (single isomer, unassigned) [10A*] | < 1000 nM | 200 nM |  | < 1000 nM | 95 nM | < 1000 nM | 300 nM |  |
